Source: ChEMBL document CHEMBL1122012, “Adenosine receptors: targets for future drugs” (J Med Chem, 1982)
Active and inactive are the calls of the source. The rule behind the calls is not given here.

What was measured:
[1] = target: T1, Adenosine receptor A2a (Cavia porcellus, UniProt P46616); test: biochemical
Description: (§1) Antagonist binding of N6-cyclohexyl-[3H]-adenosine to guinea pig brain

[2] = target: T2, Adenosine receptor A1 (Homo sapiens) (UniProt P30542); conditions: brain
T2 sequence (whole entry): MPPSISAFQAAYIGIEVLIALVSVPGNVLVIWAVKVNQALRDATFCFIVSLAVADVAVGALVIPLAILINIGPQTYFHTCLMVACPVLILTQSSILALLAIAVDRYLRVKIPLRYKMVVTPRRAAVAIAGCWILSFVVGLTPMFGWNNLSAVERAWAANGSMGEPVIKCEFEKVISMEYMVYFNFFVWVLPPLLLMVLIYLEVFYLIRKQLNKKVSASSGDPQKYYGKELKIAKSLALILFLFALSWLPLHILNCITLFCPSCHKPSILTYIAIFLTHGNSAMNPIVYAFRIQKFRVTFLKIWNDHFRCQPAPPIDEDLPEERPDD

[3] = target: T3, Adenosine A2 receptor (Homo sapiens) (UniProt P29275+P29274); conditions: brain
[4] = target: T4, Adenosine receptor A1 (Bos taurus, UniProt P28190)
T4 sequence (P28190 whole entry): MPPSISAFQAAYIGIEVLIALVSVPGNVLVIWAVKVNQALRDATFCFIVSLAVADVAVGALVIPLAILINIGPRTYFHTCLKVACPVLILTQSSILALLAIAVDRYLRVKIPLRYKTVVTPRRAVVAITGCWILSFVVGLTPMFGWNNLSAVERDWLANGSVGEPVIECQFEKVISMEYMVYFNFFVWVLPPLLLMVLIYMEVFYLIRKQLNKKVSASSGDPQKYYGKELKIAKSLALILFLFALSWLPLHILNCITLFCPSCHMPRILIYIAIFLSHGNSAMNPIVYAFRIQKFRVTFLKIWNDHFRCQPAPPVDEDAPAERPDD

[5] = target: T5, Adenosine receptor (Homo sapiens) (UniProt P30542+P29275+P0DMS8+P29274)
T5 sequence (P0DMS8 whole entry, looked up, one chain of several): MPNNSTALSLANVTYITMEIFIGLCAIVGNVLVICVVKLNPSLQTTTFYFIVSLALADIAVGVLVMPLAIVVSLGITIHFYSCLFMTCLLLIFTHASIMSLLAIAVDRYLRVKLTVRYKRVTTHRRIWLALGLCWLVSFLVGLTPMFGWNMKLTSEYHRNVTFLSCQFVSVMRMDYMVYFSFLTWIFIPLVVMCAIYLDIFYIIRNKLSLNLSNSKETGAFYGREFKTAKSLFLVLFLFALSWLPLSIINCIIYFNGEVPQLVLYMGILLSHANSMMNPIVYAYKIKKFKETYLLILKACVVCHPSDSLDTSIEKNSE
T5 sequence (P29274 whole entry, looked up, one chain of several): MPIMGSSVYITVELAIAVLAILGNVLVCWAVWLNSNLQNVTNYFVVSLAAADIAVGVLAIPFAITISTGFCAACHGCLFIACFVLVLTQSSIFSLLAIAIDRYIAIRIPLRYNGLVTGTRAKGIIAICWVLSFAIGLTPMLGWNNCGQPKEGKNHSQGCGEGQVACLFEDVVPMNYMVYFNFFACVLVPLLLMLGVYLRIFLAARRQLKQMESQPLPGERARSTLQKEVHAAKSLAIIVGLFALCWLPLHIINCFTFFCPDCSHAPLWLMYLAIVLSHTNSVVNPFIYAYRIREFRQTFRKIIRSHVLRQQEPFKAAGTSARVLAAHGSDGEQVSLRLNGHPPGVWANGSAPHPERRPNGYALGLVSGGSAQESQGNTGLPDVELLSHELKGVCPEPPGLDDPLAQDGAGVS
T5 sequence (P29275 whole entry, looked up, one chain of several): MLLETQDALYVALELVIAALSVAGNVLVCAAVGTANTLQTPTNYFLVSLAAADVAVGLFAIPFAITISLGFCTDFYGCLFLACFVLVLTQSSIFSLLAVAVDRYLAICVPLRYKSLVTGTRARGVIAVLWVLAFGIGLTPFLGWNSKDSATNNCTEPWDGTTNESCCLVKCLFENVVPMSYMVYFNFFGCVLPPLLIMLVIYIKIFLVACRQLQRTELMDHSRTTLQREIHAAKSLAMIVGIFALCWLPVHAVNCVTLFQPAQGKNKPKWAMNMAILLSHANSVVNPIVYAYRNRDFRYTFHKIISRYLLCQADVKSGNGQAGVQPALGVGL

[6] = target: T5, Adenosine receptor (Homo sapiens); remark: listed apart in the source
[7] = target: T3, Adenosine A2 receptor (Homo sapiens); conditions: brain; remark: listed apart in the source
[8] = target: T2, Adenosine receptor A1 (Homo sapiens); test: Affinity constant for inhibition of A1 receptor control of adenylate cyclase in adipocytes, heart and brain cells; Inactive; format: functional, cell-based
[9] = target: T3, Adenosine A2 receptor (Homo sapiens); test: Affinity constant for A2 receptor control of adenylate cyclase in adipocytes, heart and brain cells; Inactive; format: functional, cell-based
[10] = target: T1, Adenosine receptor A2a; test: biochemical; remark: listed apart in the source
Description: as §1

[11] = target: T6, Adenosine receptor (Rattus norvegicus, UniProt P29276+P25099+P30543+P28647); format: functional
[12] = target: T6, Adenosine receptor; test: Antagonist binding of rN6-cyclohexyl-[3H]adenosine to rat brain; format: functional
[13] = target: T6, Adenosine receptor
Description: Antagonist binding of L-N6-phenyl-isopropyl)-[3H]adenosine to rat fat

T1 sequence (P46616 whole entry): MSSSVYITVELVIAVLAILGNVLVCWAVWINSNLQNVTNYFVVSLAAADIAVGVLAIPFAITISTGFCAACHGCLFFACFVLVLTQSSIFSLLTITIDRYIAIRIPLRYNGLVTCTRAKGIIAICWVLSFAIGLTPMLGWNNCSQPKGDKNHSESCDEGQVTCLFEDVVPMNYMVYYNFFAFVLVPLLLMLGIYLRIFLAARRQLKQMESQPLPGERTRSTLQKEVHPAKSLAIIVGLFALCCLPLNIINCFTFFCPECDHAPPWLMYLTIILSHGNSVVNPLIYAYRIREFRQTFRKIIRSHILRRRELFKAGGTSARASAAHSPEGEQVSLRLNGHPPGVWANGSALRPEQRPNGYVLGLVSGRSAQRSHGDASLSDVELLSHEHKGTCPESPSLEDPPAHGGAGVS

Structure (SMILES)	Ki [1]	Affinity constant [2]	Ki [4]	Affinity constant [6]	Affinity constant [7]	also measured
Nc1ncnc2c1ncn2[C@@H]1O[C@H](C(=O)NC2CC2)[C@@H](O)[C@H]1O	8 nM	–	–	–	–	–
Nc1nc(Cl)nc2c1ncn2[C@@H]1O[C@H](CO)[C@@H](O)[C@H]1O	8 nM	0.01 µM	25 nM	–	–	Affinity constant [3]: 5 µM; Affinity constant [5]: inactive
OC[C@H]1O[C@@H](n2cnc3c(NC4CCCCC4)ncnc32)[C@H](O)[C@@H]1O	–	0.003 µM	2.5 nM	inactive	30 µM	–
CCNC(=O)[C@H]1O[C@@H](n2cnc3c(N)ncnc32)[C@H](O)[C@@H]1O	–	0.1 µM	–	–	–	–
CNc1ncnc2c1ncn2[C@@H]1O[C@H](CO)[C@@H](O)[C@H]1O	–	0.1 µM	–	–	80 µM	–
CSC[C@H]1O[C@@H](n2cnc3c(N)ncnc32)[C@H](O)[C@@H]1O	–	–	–	–	10 µM	–
C[C@@H]1O[C@H](n2cnc3c(N)ncnc32)C[C@H]1O	–	–	–	2 µM	–	Affinity constant [8]: inactive; Affinity constant [9]: inactive
OC[C@H]1O[C@@H](n2cnc3c(NCc4ccccc4)ncnc32)[C@H](O)[C@@H]1O	–	0.2 µM	–	inactive	80 µM	–
OC[C@H]1O[C@@H](n2cnc3c(Nc4ccccc4)ncnc32)[C@H](O)[C@@H]1O	–	0.003 µM	–	inactive	50 µM	–
Cn1c(=O)c2[nH]c(-c3ccccc3)nc2n(C)c1=O [8-PHENYL THEOPHYLLINE]	400 nM	–	–	–	–	–
C[C@H](Cc1ccccc1)Nc1ncnc2c1ncn2[C@@H]1O[C@H](CO)[C@@H](O)[C@H]1O [(R)-PIA]	–	0.003 µM	0.25 nM	inactive	30 µM	Ki [10]: 3.3 nM
C[C@@H](Cc1ccccc1)Nc1ncnc2c1ncn2[C@@H]1O[C@H](CO)[C@@H](O)[C@H]1O [(S)-PIA]	130 nM	0.2 µM	8 nM	inactive	100 µM	–
Cn1c(=O)c2c(ncn2C)n(C)c1=O [CAFFEINE]	–	30 µM	130000 nM	inactive	30 µM	–
CC(C)Cn1c(=O)n(C)c(=O)c2[nH]cnc21 [ISOBUTYLMETHYLXANTHINE]	8000 nM	–	7000 nM	–	–	–
CC(C)Cn1c(=O)n(C)c(=O)c2nc[nH]c21 [ISOBUTYLMETHYLXANTHINE]	–	2 µM	–	inactive	5 µM	Ki [11]: 0.8 µM; Ki [12]: 3 µM; Ki [13]: 20 µM
